This note sets out measurements from US9796711B2, “Substituted pyrazolo[3,4-b]pyridin-6-carboxylic acids and method of use” (AbbVie S.àr.l., priority 2015, dated 2017).

The assay has as its target T1, ΔF508-CFTR (Homo sapiens, UniProt P13569, DEL508-508).
T1 construct: host or cells: CFBE41o-, doxycycline-inducible
Briefly: CFTR cell surface levels using HRP-tagged ΔF508-CFTR expressing CFBE cells, in the presence of a co-corrector. In kind it is cell-based. The note with it: HRP-tagged ΔF508-CFTR expressing CFBE cells, in the presence of 3 μM co-corrector; for EC50: read-out: EC50. An excerpt: Measuring CFTR Cell Surface Levels Using HRP-Tagged AF508-CFTR Expressing CFBE Cells
The HRP-tagged AF508-CFTR cell assay measures the expression of CFTR-ΔF508 at the plasma membrane. CFTR-ΔF508 has a folding defect leading to absence of protein at the plasma membrane. This assay is used to evaluate the capacity of compounds to increase the expression of CFTR-ΔF508 at the plasma membrane. The CFTR-ΔF508 is tagged with HRP (horse radish peroxidase enzyme) within the ECL4 (Extracellular loop 4) of CFTR (Phuan, P.-W. et al. Synergy-based small-molecule screen using a human lung epithelial cell line yields AF508-CFTR correctors that augment VX-809 maximal efficacy. Mol. Pharmacol. 86, 42-51 (2014)). When HRP-tagged AF508-CFTR is present at the plasma membrane, the HRP enzyme activity can be measured. The amount of CFTR-ΔF508 that can be rescued to the plasma membrane is correlated with the amount of functional enzyme that can be measured.
There are several ways to measure the capacity of compounds to rescue CFTR-ΔF508 to the plasma membrane; either compounds are evaluated on their own and the impact on plasma membrane levels is measured or compounds are evaluated in combination with a co-corrector, i.e. a compound that rescues CFTR-ΔF508 to the plasma membrane but rescue can be enhanced by addition of compounds due to a complementary mode of action.
Activity of Compounds in Combination with Co-Corrector:
For this purpose doxycycline-inducible AF508-CFTR-HRP expressing CFBE4lo-cells (obtained from Gergely Lukacs, McGill University) were maintained in MEM (Minimum Essential Medium, Gibco; 31095) supplemented with 10% fetal bovine serum (Hyclone; SV30160.03) under puromycin (3 μg/mL) and G418 selection (0.2 mg/mL). For compound testing, cells were seeded at 4000 cells/well in white 384-well plates (Greiner; 781080) in 50 μL of medium containing 0.5 μg/mL doxycycline and incubated for 68 hours at 37° C., 5% CO2. On day four, 10 μL of test compounds diluted in PBS (phosphate buffered saline) were added to the plates at a final DMSO concentration of 0.1%. In order to measure compound synergy with a co-corrector, 3 μM co-corrector (3-[(2R,4R)-4-({[1-(2,2-difluoro-1,3-benzodioxol-5-yl)cyclopropyl]carbonyl}amino)-7-methoxy-3,4-dihydro-2H-chromen-2-yl]benzoic acid) was added along with test compounds. All compound plates contained negative controls (DMSO) and positive controls (3 μM co-corrector). Cell plates were incubated at 33° C., 5% CO2 for 20 hours. On day five, the cells were washed five times with phosphate-buffered saline, and HRP activity was assayed by the addition of 50 μL/well of HRP substrate (SuperSignal™ West Pico Chemiluminescent Substrate, Thermo Scientific; 34080). After incubation for 15 minutes in the dark, the chemiluminescence was measured using a plate reader (EnVision®, Perkin Elmer). Raw data were normalized to percentage activity values using the equation: 100×(Sample−Negative control)/(Positive control−Negative Control).

T1 sequence (P13569 with tags, fused parts or gaps DEL508-508): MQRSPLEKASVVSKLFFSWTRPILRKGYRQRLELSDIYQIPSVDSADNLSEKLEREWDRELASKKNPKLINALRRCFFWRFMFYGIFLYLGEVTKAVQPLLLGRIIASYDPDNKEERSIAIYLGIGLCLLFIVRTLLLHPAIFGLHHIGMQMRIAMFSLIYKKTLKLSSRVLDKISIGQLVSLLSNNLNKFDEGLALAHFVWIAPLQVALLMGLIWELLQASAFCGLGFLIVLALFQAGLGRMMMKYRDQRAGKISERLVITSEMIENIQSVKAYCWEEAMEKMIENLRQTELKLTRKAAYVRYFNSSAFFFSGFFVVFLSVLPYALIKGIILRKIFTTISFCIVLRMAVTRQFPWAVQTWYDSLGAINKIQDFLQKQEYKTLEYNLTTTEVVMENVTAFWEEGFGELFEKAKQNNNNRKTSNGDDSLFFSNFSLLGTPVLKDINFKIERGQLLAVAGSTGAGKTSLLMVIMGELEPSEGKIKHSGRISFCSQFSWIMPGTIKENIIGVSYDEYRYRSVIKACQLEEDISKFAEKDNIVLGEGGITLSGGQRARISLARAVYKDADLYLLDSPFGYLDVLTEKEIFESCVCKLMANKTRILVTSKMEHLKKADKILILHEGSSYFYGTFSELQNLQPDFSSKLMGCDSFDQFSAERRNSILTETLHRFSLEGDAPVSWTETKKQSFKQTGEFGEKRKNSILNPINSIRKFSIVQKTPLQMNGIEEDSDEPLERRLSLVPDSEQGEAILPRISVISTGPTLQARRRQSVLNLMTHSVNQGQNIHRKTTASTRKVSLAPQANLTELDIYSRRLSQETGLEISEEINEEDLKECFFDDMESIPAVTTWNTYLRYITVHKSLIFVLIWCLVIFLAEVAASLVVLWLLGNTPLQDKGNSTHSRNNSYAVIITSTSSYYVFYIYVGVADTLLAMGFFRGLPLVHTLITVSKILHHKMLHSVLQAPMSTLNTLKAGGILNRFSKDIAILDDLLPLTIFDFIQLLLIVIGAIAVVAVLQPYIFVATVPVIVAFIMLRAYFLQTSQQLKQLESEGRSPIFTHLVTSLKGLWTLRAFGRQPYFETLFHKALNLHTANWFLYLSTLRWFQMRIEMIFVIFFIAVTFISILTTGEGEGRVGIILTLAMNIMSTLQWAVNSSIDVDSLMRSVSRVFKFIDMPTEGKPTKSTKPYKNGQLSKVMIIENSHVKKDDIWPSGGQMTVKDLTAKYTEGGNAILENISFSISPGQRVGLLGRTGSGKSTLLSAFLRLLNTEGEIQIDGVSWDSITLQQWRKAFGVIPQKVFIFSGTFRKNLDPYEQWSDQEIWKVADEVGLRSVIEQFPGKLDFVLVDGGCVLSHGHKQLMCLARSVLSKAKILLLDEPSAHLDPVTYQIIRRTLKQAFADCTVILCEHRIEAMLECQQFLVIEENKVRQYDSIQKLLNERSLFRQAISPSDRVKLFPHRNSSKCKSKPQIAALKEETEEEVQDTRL

With `O=C(O)c1cc(N2CCN(CCO)CC2)c2c(C3CCC3)nn(-c3ccccc3)c2n1` [compound 722, 3-cyclobutyl-4-[4-(2-hydroxyethyl)piperazin-1-yl]-1-phenyl-1H-pyrazolo[3,4-b]pyridine-6-carboxylic acid], the “% Activation” value is on record as 247% and the EC50 worked out at 1670 nM.

On to `C[C@H]1CN(c2cc(C(=O)O)nc3c2c(C2CCC2)nn3C2CCCCC2)CCN1Cc1ccccc1` [compound 881, 4-[(3S)-4-benzyl-3-methylpiperazin-1-yl]-3-cyclobutyl-1-cyclohexyl-1H-pyrazolo[3,4-b]pyridine-6-carboxylic acid], for which the “% Activation” value is given as 242.75% and the EC50 is 700 nM.

Take `COC(=O)N1CCC(COc2cc(C(=O)O)nc3c2c(C(C)C)nn3-c2ccc(F)cc2)CC1` [compound 663, 1-(4-fluorophenyl)-4-{[1-(methoxycarbonyl)piperidin-4-yl]methoxy}-3-(propan-2-yl)-1H-pyrazolo[3,4-b]pyridine-6-carboxylic acid]: the “% Activation” value is on record as 315.5% and the EC50 stood at 90.9 nM.

As for `CN(C1CCN(C2CN(c3cc(C(=O)O)nc4c3c(C3CCC3)nn4-c3ccccc3)C2)CC1)C1COC1` [compound 724, 3-cyclobutyl-4-(3-{4-[methyl(oxetan-3-yl)amino]piperidin-1-yl}azetidin-1-yl)-1-phenyl-1H-pyrazolo[3,4-b]pyridine-6-carboxylic acid], the “% Activation” value is listed as 208.5% and the EC50 was found to be 1670 nM.

With `N#CC1COC2(C1)CN(c1cc(C(=O)O)nc3c1c(C1CCC1)nn3-c1ccccc1)C2` (stereo not drawn) [compound 716, 4-(7-cyano-5-oxa-2-azaspiro[3.4]octan-2-yl)-3-cyclobutyl-1-phenyl-1H-pyrazolo[3,4-b]pyridine-6-carboxylic acid], the “% Activation” value came out at 282.9% and the EC50 turned out to be 772 nM.

Take `O=C(O)c1cc(OC2CCC2)c2c(C3CCC3)nn(-c3ccccc3)c2n1` [compound 585, 3-cyclobutyl-4-(cyclobutyloxy)-1-phenyl-1H-pyrazolo[3,4-b]pyridine-6-carboxylic acid]: the “% Activation” value is 245.3% and the EC50 came out at 2490 nM.

Regarding `O=C(O)c1cc(N2CC[C@@H](N3CCCCC3)C2)c2c(C3CCC3)nn(-c3ccccc3)c2n1` [compound 715, 3-cyclobutyl-1-phenyl-4-[(3R)-3-(piperidin-1-yl)pyrrolidin-1-yl]-1H-pyrazolo[3,4-b]pyridine-6-carboxylic acid], the “% Activation” value amounted to 261.4% and the EC50 was found to be 1270 nM.

For `O=C(O)c1cc(-c2ccc(CN3CCOCC3)cc2)c2c(OC3CCC3)nn(C3CCCCC3)c2n1` [compound 808, 3-(cyclobutyloxy)-1-cyclohexyl-4-{4-[(morpholin-4-yl)methyl]phenyl}-1H-pyrazolo[3,4-b]pyridine-6-carboxylic acid], the “% Activation” value turned out to be 297% and the EC50 stood at 264 nM.

`CC(C)c1nn(-c2ccc(F)cc2)c2nc(C(=O)O)cc(N3CCC(C)(N4CCN(C)CC4)CC3)c12` [compound 761, 1-(4-fluorophenyl)-4-[4-methyl-4-(4-methylpiperazin-1-yl)piperidin-1-yl]-3-(propan-2-yl)-1H-pyrazolo[3,4-b]pyridine-6-carboxylic acid]: the “% Activation” value is 284% and the EC50 stood at 1670 nM.

Turning to `O=C(O)c1cc(N2CCC(OCCN3CCCCC3)CC2)c2c(C3CCC3)nn(-c3ccccc3)c2n1` [compound 730, 3-cyclobutyl-1-phenyl-4-{4-[2-(piperidin-1-yl)ethoxy]piperidin-1-yl}-1H-pyrazolo[3,4-b]pyridine-6-carboxylic acid], the “% Activation” value stood at 418.7% and the EC50 turned out to be 71.5 nM.

On to `COc1cc(-n2nc(C3CCC3)c3c(N4CCC(N5CCOCC5)CC4)cc(C(=O)O)nc32)ccn1` [compound 816, 3-cyclobutyl-1-(2-methoxypyridin-4-yl)-4-[4-(morpholin-4-yl)piperidin-1-yl]-1H-pyrazolo[3,4-b]pyridine-6-carboxylic acid], for which the “% Activation” value is recorded as 359.9% and the EC50 came out at 67.6 nM.

For `COCCN1CCN(C2CCN(c3cc(C(=O)O)nc4c3c(C(C)C)nn4-c3ccc(F)cc3)CC2)CC1` [compound 746, 1-(4-fluorophenyl)-4-{4-[4-(2-methoxyethyl)piperazin-1-yl]piperidin-1-yl}-3-(propan-2-yl)-1H-pyrazolo[3,4-b]pyridine-6-carboxylic acid], the “% Activation” value stood at 418.4% and the EC50 came to 549 nM.

For the molecule `CCOCCN1CCN(C2CCN(c3cc(C(=O)O)nc4c3c(C3CCC3)nn4-c3ccccc3)CC2)CC1` [compound 729, 3-cyclobutyl-4-{4-[4-(2-ethoxyethyl)piperazin-1-yl]piperidin-1-yl}-1-phenyl-1H-pyrazolo[3,4-b]pyridine-6-carboxylic acid], the “% Activation” value is 530.4% and the EC50 came out at 1670 nM.

As to `O=C(O)c1cc(OCC2CC(F)(F)C2)c2c(C3CCC3)nn(-c3ccccc3)c2n1` [compound 600, 3-cyclobutyl-4-[(3,3-difluorocyclobutyl)methoxy]-1-phenyl-1H-pyrazolo[3,4-b]pyridine-6-carboxylic acid], the “% Activation” value is listed as 334.3% and the EC50 worked out at 383 nM.

For `O=C(O)c1cc(OC2CCCC2)c2c(C3CCC3)nn(-c3ccccc3)c2n1` [compound 597, 3-cyclobutyl-4-(cyclopentyloxy)-1-phenyl-1H-pyrazolo[3,4-b]pyridine-6-carboxylic acid], the “% Activation” value is reported as 342.5% and the EC50 amounted to 230 nM.

In the case of `CN(C)C(=O)N1CCN(c2cc(C(=O)O)nc3c2c(C2CCC2)nn3-c2ccccc2)CC1` [compound 708, 3-cyclobutyl-4-[4-(dimethylcarbamoyl)piperazin-1-yl]-1-phenyl-1H-pyrazolo[3,4-b]pyridine-6-carboxylic acid], the “% Activation” value worked out at 314.8% and the EC50 came out at 147 nM.

Regarding `N#CCC1(O)CCN(c2cc(C(=O)O)nc3c2c(C2CCC2)nn3-c2ccccc2)CC1` [compound 665, 4-[4-(cyanomethyl)-4-hydroxypiperidin-1-yl]-3-cyclobutyl-1-phenyl-1H-pyrazolo[3,4-b]pyridine-6-carboxylic acid], the “% Activation” value is given as 330.43% and the EC50 was determined as 1860 nM.

With `CC(C)COC(=O)N1CCN(c2cc(C(=O)O)nc3c2c(C2CCC2)nn3-c2ccccc2)CC1` [compound 701, 3-cyclobutyl-4-{4-[(2-methylpropoxy)carbonyl]piperazin-1-yl}-1-phenyl-1H-pyrazolo[3,4-b]pyridine-6-carboxylic acid], the “% Activation” value came to 498.5% and the EC50 amounted to 36.1 nM.

In the case of `CC(C)c1nn(-c2ccc(F)cc2)c2nc(C(=O)O)cc(N3CCN(CCCN(C)C)CC3)c12` [compound 760, 4-{4-[3-(dimethylamino)propyl]piperazin-1-yl}-1-(4-fluorophenyl)-3-(propan-2-yl)-1H-pyrazolo[3,4-b]pyridine-6-carboxylic acid], the “% Activation” value stood at 131.6% and the EC50 is 5000 nM.

Regarding `O=C(O)c1cc(N2CCC(CCCN3CCCCC3)CC2)c2c(C3CCC3)nn(-c3ccccc3)c2n1` [compound 732, 3-cyclobutyl-1-phenyl-4-{4-[3-(piperidin-1-yl)propyl]piperidin-1-yl}-1H-pyrazolo[3,4-b]pyridine-6-carboxylic acid], the “% Activation” value turned out to be 409.6% and the EC50 was found to be 119 nM.

Turning to `CC(C)c1nn(C2CCCCC2)c2nc(C(=O)O)cc(N3CCC(C#N)CC3)c12` [compound 263, 4-(4-cyanopiperidin-1-yl)-1-cyclohexyl-3-(propan-2-yl)-1H-pyrazolo[3,4-b]pyridine-6-carboxylic acid], the “% Activation” value was 334.25% and the EC50 was 1130 nM.
